These results are taken from patent publication US12344606B2, “Next-generation modulators of stimulator of interferon genes (STING)” (RYVU THERAPEUTICS S.A., priority 2019, dated 2025).

For assay [1], the system named is NF-κB pathway in THP-1 dual cells. Kind of assay: THP-1 Dual reporter assay, NF-κB pathway (SEAP). The class given is cell-based. The settings on record: Homo sapiens, THP1-Dual; 18 h stimulation, absorbance; read-out: THP1 Dual EC50 (μM) NFkB. The method, then: (§1) Compounds of the present invention were tested for their activity using THP-1 dual cells (Invivogen, cat no. thpd-nfis) allowing for simultaneous study of NF-κB pathway and the interferon regulatory factor (IRF) pathway. THP-1 dual cells contain luciferase reporter gene under the control of an ISG54 (interferon-stimulated gene) minimal promoter in conjunction with five interferon-stimulated response elements and a secreted embryonic alkaline phosphatase reporter gene under the control an IFN (interferon)-β minimal promoter fused to five copies of the NF-κB consensus transcriptional response element with three copies of the c-Rel binding site. Following 18 h of stimulation with STING agonist, medium was collected and transferred onto fresh cell culture plate. To verify activity of the IRF pathway, luminescence activity was measured with standard laboratory plate reader immediately after addition 10 μl of the medium to 50 μl (or 40 μl) of luminescence reagent (Invivogen, cat. No. rep-qlc2). To verify activity of NF-κB pathway, 20 μl (or 10 μl) of the medium was mixed with 80 μl of a detection medium (Invivogen, cat. No. rep-qb2) and incubated for 2 hours (or 1 hour) at 37° C. in a humidified atmosphere containing 5% CO2. Next, absorbance at 630 nm (or 655 nm) was recorded using standard laboratory plate reader.
Background: Reporter assays use an easily measured gene product as a stand-in for the process of interest.

In assay [2] the target is human STING (Homo sapiens, UniProt Q86WV6). Put plainly: Fluorescence Thermal Shift assay (hSTING FTS binding assay). The settings on record: STING 0.1 mg/ml, 20 min preincubation, SyproOrange. The method, then: Compounds of the present invention were tested for binding to human STING in Fluorescence Thermal Shift assay. STING was preincubated with the compounds for 20 minutes in 50 mM Hepes, 150 mM NaCl, pH 7.5 in 16 μl volume, following by adding 4 μl of SyproOrange dye dilution (ThermoFisher, cat no. S-6651). Final STING concentration was 0.1 mg/ml. Thermal unfolding was performed in Real-Time PCR QuantStudio 6 Flex System (Applied Biosystems), from 25 to 99° C., with continuous ramp mode and ramp rate 0.033° C./s. The data were analyzed using Protein Thermal Shift Software (ThermoFisher).
human STING, sequence (Q86WV6 whole entry H232R): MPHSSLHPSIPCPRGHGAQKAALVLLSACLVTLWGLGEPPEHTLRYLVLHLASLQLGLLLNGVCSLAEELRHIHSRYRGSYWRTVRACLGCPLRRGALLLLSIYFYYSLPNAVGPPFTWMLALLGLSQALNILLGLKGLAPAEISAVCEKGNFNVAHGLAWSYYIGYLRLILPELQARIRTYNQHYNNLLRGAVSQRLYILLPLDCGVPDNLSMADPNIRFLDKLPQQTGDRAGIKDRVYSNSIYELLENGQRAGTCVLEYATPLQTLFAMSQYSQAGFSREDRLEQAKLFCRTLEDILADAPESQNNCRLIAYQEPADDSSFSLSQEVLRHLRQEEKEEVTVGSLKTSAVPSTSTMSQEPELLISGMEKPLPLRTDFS

Assay [3] deals with interferon regulatory factor (IRF) pathway in THP-1 dual cells. Kind of assay: THP-1 Dual reporter assay, IRF pathway (luciferase). The class given is cell-based. The following applies: Homo sapiens, THP1-Dual; 18 h stimulation, luminescence. As for the experimental part: as §1

Take `Cc1cc(CN(Cc2cn(C)c3ccccc3c2=O)[C@H]2CCCN(c3ncc(Br)cn3)C2)ccn1` [Example 32, 3-({[(3S)-1-(5-bromopyrimidin-2-yl)piperidin-3-yl][(2-methylpyridin-4-yl)methyl]amino}methyl)-1-methyl-1,4-dihydroquinolin-4-one]: the EC50 in assay [1] and in assay [3] was 1 to 10 µM throughout. Moreover, the “hSTING FTS binding assay (ΔT C.°)” value in assay [2] was “+ (ΔTm<10° C.)”.

In the case of `COc1cc(CN(Cc2cn(C3CC3)c3cc(N4CCN(C)CC4)c(F)cc3c2=O)[C@H]2CCCN(c3cccnc3)C2)ccn1` [Example 9, 1-cyclopropyl-6-fluoro-3-({[(2-methoxypyridin-4-yl)methyl][(3S)-1-(pyridin-3-yl)piperidin-3-yl]amino}methyl)-7-(4-methylpiperazin-1-yl)-1,4-dihydroquinolin-4-one], the EC50 in assay [1] and in assay [3] was at most 1 µM in each case. For the same compound, in assay [2], the “hSTING FTS binding assay (ΔT C.°)” value was “++ (ΔTm>10° C.)”.

In the case of `Cc1ccc(N2CCC[C@H](N(Cc3ccnc(C)c3)Cc3cn(C)c4c(Br)cccc4c3=O)C2)cn1` [Example 60, 8-bromo-1-methyl-3-({[(3S)-1-(6-methylpyridin-3-yl)piperidin-3-yl][(2-methylpyridin-4-yl)methyl]amino}methyl)-1,4-dihydroquinolin-4-one], the EC50 in assay [1] and in assay [3] was at most 1 µM each time.

As to `COc1nc2c(cc1F)c(=O)c(CN(Cc1ccnc(C)c1)[C@H]1CCCN(c3ccc(C)nc3)C1)cn2C1CC1` [Example 44, 1-cyclopropyl-6-fluoro-7-methoxy-3-({[(3S)-1-(6-methylpyridin-3-yl)piperidin-3-yl][(2-methylpyridin-4-yl)methyl]amino}methyl)-1,4-dihydro-1,8-naphthyridin-4-one], the concentration for a half-maximal effect (EC50) in assay [1] and in assay [3] was at most 1 µM each time. In addition, the “hSTING FTS binding assay (ΔT C.°)” value in assay [2] is “++ (ΔTm>10° C.)”.

`COc1cc(N2CCC[C@H](N(Cc3ccnc(C)c3)Cc3cn(C)c4ccccc4c3=O)C2)ccn1` [Example 20, 3-({[(3S)-1-(2-methoxypyridin-4-yl)piperidin-3-yl][(2-methylpyridin-4-yl)methyl]amino}methyl)-1-methyl-1,4-dihydroquinolin-4-one]: the EC50 in assay [1] and in assay [3] was at least 10 µM throughout. Besides, in assay [2], the “hSTING FTS binding assay (ΔT C.°)” value is recorded as “+ (ΔTm<10° C.)”.

For `Cc1cc(CN(Cc2cn(C)c3ccccc3c2=O)[C@H]2CCCN(c3ccnc(Cl)n3)C2)ccn1` [Example 54, 3-({[(3S)-1-(2-chloropyrimidin-4-yl)piperidin-3-yl][(2-methylpyridin-4-yl)methyl]amino}methyl)-1-methyl-1,4-dihydroquinolin-4-one], the EC50 in assay [1] and in assay [3] was 1 to 10 µM throughout.

As for `Cc1cc(CN(Cc2cn(C)c3cc(Br)ccc3c2=O)[C@H]2CCCN(c3cccnc3)C2)ccn1` [Example 23, 7-bromo-1-methyl-3-({[(2-methylpyridin-4-yl)methyl][(3S)-1-(pyridin-3-yl)piperidin-3-yl]amino}methyl)-1,4-dihydroquinolin-4-one], the EC50 in assay [1] and in assay [3] was at most 1 µM in each case. The “hSTING FTS binding assay (ΔT C.°)” value in assay [2] is “++ (ΔTm>10° C.)”.

As to `Cc1ccc(N2CCC[C@H](N(Cc3ccnc(C)c3)Cc3cn(C)c4ccccc4c3=O)C2)cn1` [Example 7, 1-methyl-3-({[(3S)-1-(6-methylpyridin-3-yl)piperidin-3-yl][(2-methylpyridin-4-yl)methyl]amino}methyl)-1,4-dihydroquinolin-4-one], the EC50 in assay [1] and in assay [3] was at most 1 µM throughout.

Regarding `Cn1cc(CN(Cc2ccns2)[C@H]2CCCN(c3cccnc3)C2)c(=O)c2ccccc21` [Example 55, 1-methyl-3-({[(3S)-1-(pyridin-3-yl)piperidin-3-yl][(1,2-thiazol-5-yl)methyl]amino}methyl)-1,4-dihydroquinolin-4-one], the EC50 in assay [1] and in assay [3] was at least 10 µM throughout. Besides, the “hSTING FTS binding assay (ΔT C.°)” value in assay [2] is “+ (ΔTm<10° C.)”.

Consider `COc1cc2c(cc1F)c(=O)c(CN(Cc1ccnc(C)c1)[C@H]1CCCN(c3ccc(C)nc3)C1)cn2C1CC1` [Example 45, 1-cyclopropyl-6-fluoro-7-methoxy-3-({[(3S)-1-(6-methylpyridin-3-yl)piperidin-3-yl][(2-methylpyridin-4-yl)methyl]amino}methyl)-1,4-dihydroquinolin-4-one], for which the EC50 in assay [1] and in assay [3] was at most 1 µM each time. For the same compound, the “hSTING FTS binding assay (ΔT C.°)” value in assay [2] is recorded as “++ (ΔTm>10° C.)”.

Take `Cc1ccc(N2CCC[C@H](N(Cc3ccnc(C)c3)Cc3cn(C4CC4)c4cc(N5CCNC6(CC6)C5)c(F)cc4c3=O)C2)cn1` [Example 52, 1-cyclopropyl-7-{4,7-diazaspiro[2.5]octan-7-yl}-6-fluoro-3-({[(3S)-1-(6-methylpyridin-3-yl)piperidin-3-yl][(2-methylpyridin-4-yl)methyl]amino}methyl)-1,4-dihydroquinolin-4-one]: the EC50 in assay [1] and in assay [3] was at most 1 µM in each case. Further, in assay [2], the “hSTING FTS binding assay (ΔT C.°)” value is given as “++ (ΔTm>10° C.)”.

As to `Cc1cc(CN(Cc2cn(C3CC3)c3cc(Cl)c(F)cc3c2=O)[C@H]2CCCN(c3cccnc3)C2)ccn1` [Example 33, 7-chloro-1-cyclopropyl-6-fluoro-3-({[(2-methylpyridin-4-yl)methyl][(3S)-1-(pyridin-3-yl)piperidin-3-yl]amino}methyl)-1,4-dihydroquinolin-4-one], the 50% effective concentration (EC50) in assay [1] and in assay [3] was at most 1 µM in each case.

For the compound `Cc1cc(CN(Cc2cn(C)c3ccccc3c2=O)[C@H]2CCCN(c3ccnc(Cl)n3)C2)ccn1` [Example 19, 3-({[(3S)-1-(2-chloropyrimidin-4-yl)piperidin-3-yl][(2-methylpyridin-4-yl)methyl]amino}methyl)-1-methyl-1,4-dihydroquinolin-4-one], the “hSTING FTS binding assay (ΔT C.°)” value in assay [2] is “+ (ΔTm<10° C.)”.

On to `Cc1ccc(N2CCC[C@H](N(Cc3ccnc(C)c3)Cc3cn(C4CC4)c4cc(C5COCCN5)ccc4c3=O)C2)cn1` (stereo partly drawn) [Example 64, 1-Cyclopropyl-3-({[(3S)-1-(6-methylpyridin-3-yl)piperidin-3-yl][(2-methylpyridin-4-yl)methyl]amino}methyl)-7-(morpholin-3-yl)-1,4-dihydroquinolin-4-one], for which the EC50 in assay [1] and in assay [3] was at most 1 µM each time.

Turning to `Cc1ccc(N2CCC[C@H](N(Cc3ccnc(C)c3)Cc3cn(C4CC4)c4cc(C5=CCCCC5)c(F)cc4c3=O)C2)cn1` [Example 57, 7-(cyclohex-1-en-1-yl)-1-cyclopropyl-6-fluoro-3-({[(3S)-1-(6-methylpyridin-3-yl)piperidin-3-yl][(2-methylpyridin-4-yl)methyl]amino}methyl)-1,4-dihydroquinolin-4-one], the EC50 in assay [1] and in assay [3] was at most 1 µM throughout.

On to `COc1nc2c(cc1F)c(=O)c(CN(Cc1ccnc(C)c1)[C@H]1CCCN(c3ccc(C)nc3)C1)cn2C(C)C` [Example 62, 6-fluoro-7-methoxy-3-({[(3S)-1-(6-methylpyridin-3-yl)piperidin-3-yl][(2-methylpyridin-4-yl)methyl]amino}methyl)-1-(propan-2-yl)-1,4-dihydro-1,8-naphthyridin-4-one], for which the EC50 in assay [1] and in assay [3] was at most 1 µM in each case.

`Cc1cc(CN(Cc2cn(C)c3ccccc3c2=O)[C@H]2CCCN(c3cccnc3)C2)n(C)n1` [Example 63, 3-({[(1,3-dimethyl-1H-pyrazol-5-yl)methyl][(3S)-1-(pyridin-3-yl)piperidin-3-yl]amino}methyl)-1-methyl-1,4-dihydroquinolin-4-one]: the EC50 in assay [1] is at least 10 µM; in assay [3] it was 1 to 10 µM.

Turning to `Cc1cc(CN(Cc2cn(C)c3ccccc3c2=O)[C@H]2CCCN(c3cc(Cl)ncn3)C2)ccn1` [Example 17, 3-({[(3S)-1-(6-chloropyrimidin-4-yl)piperidin-3-yl][(2-methylpyridin-4-yl)methyl]amino}methyl)-1-methyl-1,4-dihydroquinolin-4-one], the EC50 in assay [1] and in assay [3] was 1 to 10 µM in each case.

`Cc1ccc(N2CCC[C@H](N(Cc3ccnc(C)c3)Cc3cn(C(C)C)c4nc(Cl)c(F)cc4c3=O)C2)cn1` [Example 61, 7-chloro-6-fluoro-3-({[(3S)-1-(6-methylpyridin-3-yl)piperidin-3-yl][(2-methylpyridin-4-yl)methyl]amino}methyl)-1-(propan-2-yl)-1,4-dihydro-1,8-naphthyridin-4-one]: the EC50 in assay [1] and in assay [3] was at most 1 µM each time.

One may read the EC50 as the concentration giving half of the maximal effect.
